From paper PMC10377034, “Syntheses of 25-Adamantyl-25-alkyl-2-methylidene-1α,25-dihydroxyvitamin D3 Derivatives with Structure–Function Studies of Antagonistic and Agonistic Active Vitamin D Analogs” (Biomolecules, 2023)
Read-outs that look alike come from different tables or passages of the source.

Experiments:
hVDR = biological target: T1, hVDR (Homo sapiens, UniProt P11473); test: VDR transactivation luciferase reporter assay in HEK293 cells (SPP×3-tk-LUC); format: cell-based
T1 construct: expressed in transfected cells; host or cells: HEK293
T1 sequence (P11473 1-427): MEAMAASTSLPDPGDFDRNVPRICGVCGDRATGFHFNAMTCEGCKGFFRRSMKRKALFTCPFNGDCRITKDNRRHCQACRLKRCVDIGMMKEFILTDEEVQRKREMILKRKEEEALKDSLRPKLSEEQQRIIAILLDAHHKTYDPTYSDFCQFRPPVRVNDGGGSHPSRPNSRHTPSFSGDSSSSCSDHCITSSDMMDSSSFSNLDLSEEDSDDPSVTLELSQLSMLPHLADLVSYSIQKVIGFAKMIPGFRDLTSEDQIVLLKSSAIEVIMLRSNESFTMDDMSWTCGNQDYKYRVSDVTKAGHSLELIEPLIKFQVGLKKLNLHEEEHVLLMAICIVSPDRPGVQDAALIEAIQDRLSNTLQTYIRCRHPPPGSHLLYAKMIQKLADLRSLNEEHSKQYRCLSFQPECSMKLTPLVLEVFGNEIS
Experimental: The transcriptional activity of the 25-alkylvitamin D analogs on the VDR was evaluated via a luciferase reporter assay in HEK293 human kidney cells transfected with an hVDR expression vector and a luciferase reporter with mouse osteopontin vitamin D response elements (VDREs, SPP×3-tk-LUC).
Transfections of 50 ng of TK-Spp × 3-LUC reporter plasmid, 10 ng of pCMX-β-galactosidase, and 15 ng of pCMX-VDR for each well of a 96-well plate were performed in HEK293 cells using the calcium phosphate coprecipitation method, as described previously. The mammalian two-hybrid assay for cofactor interaction with VDR used 50 ng of TK-MH100(UAS) × 3- LUC reporter plasmid, 10 ng of pCMX-β-galactosidase, 15 ng of pCMX-GAL4-RXRα, pCMX-GAL4-SRC1, or pCMX-GAL4-NCoR, and 15 ng of pCMX-VP16-VDR for each well of a 96-well plate. Luciferase and β-galactosidase activities were measured with a luminometer and a microplate reader (Molecular Devices, Sun Jose, CA, USA), respectively. Luciferase values were normalized to the internal β-galactosidase control.
HEK293 cells were co-transfected with TK-Spp × 3-LUC reporter plasmid and pCMX−VDR, and 8 h after transfection the cells were treated with several concentrations of each compound. After 24 h, the cells were harvested for assaying luciferase and β-galactosidase activity using a luminometer (Molecular Devices, Sunnyvale, CA, USA).

VDR with SRC-1 = biological target: T2, VDR with SRC-1 (Homo sapiens, UniProt P11473); test: Mammalian two-hybrid assay, VDR binding to SRC-1
T2 sequence (P11473 1-427): T1 sequence (P11473 1-427)
T2 sequence (Q15788 595-771 partner limits assumed): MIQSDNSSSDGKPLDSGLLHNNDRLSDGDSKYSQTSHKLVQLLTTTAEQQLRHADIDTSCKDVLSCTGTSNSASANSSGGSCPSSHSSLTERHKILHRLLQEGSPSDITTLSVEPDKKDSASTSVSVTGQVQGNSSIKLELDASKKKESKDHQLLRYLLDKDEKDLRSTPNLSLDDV
Experimental: We used the expression plasmids pCMX-VDR, pCMX-VP16- VDR, pCMX-GAL4-RXRα, pCMX-GAL4-SRC-1, and pCMX-GAL4- N-CoR, as reported previously [43]. […] We used luciferase reporters: VDR-responsive Sppx3-tk-LUC and GAL4-responsive MH100(UAS) × 4-tk-LUC reporters [43].
Transfections of 50 ng of TK-Spp × 3-LUC reporter plasmid, 10 ng of pCMX-β-galactosidase, and 15 ng of pCMX-VDR for each well of a 96-well plate were performed in HEK293 cells using the calcium phosphate coprecipitation method, as described previously [43]. The mammalian two-hybrid assay for cofactor interaction with VDR used 50 ng of TK-MH100(UAS) × 3- LUC reporter plasmid, 10 ng of pCMX-β-galactosidase, 15 ng of pCMX-GAL4-RXRα, pCMX-GAL4-SRC1, or pCMX-GAL4-NCoR, and 15 ng of pCMX-VP16-VDR for each well of a 96-well plate. Luciferase and β-galactosidase activities were measured with a luminometer and a microplate reader (Molecular Devices, Sun Jose, CA, USA), respectively. Luciferase values were normalized to the internal β-galactosidase control.
(B) Effects on the interactions between the VDR and SRC-1. HEK293 cells were co-transfected with CMX-GAL4-SRC-1, CMX-VP16-VDR, and MH100 (UAS) × 4-tk-LUC and were treated with each compound over a range of concentrations. (C) Effects on interactions of the VDR with NCoR-1. HEK293 cells were co-transfected with CMX-GAL4-N-CoR in combination with CMX-VP16-VDR and MH100 (UAS) × 4-tk-LUC and were treated with each compound over a range of concentrations.

- Transcriptional activity efficacy (hVDR; 1,25(OH)2D3 = 100%): 95%
- EC50 (hVDR; read-out: Transcriptional activity EC50): 620 pM
- Emax (hVDR; this study, read-out: Transcriptional Activity % Efficacy of That of 1 (converted)): 95%
- EC50 (hVDR; this study, read-out: Transcriptional Activity EC50): 600 pM
- EC50 (VDR with SRC-1): 2400 pM
SMILES: C=C1[C@H](O)CC(=C/C=C2\CCC[C@]3(C)[C@@H]([C@H](C)CC#C[C@](O)(CCCC)C45CC6CC(CC(C6)C4)C5)CC[C@@H]23)C[C@H]1O [ADKM6, (25S)-25-(1-Adamantyl)-1α,25-dihydroxy-2-methylidene-26-propyl-23-yne-19,27-dinorvitamin D3]
